Source: patent US20240269139A1, “COMPOUNDS FOR TARGETED PROTEIN DEGRADATION OF KINASES” (DANA-FARBER CANCER INSTITUTE, INC., priority 2020, published 2024)
Read-outs that look alike come from different tables or passages of the source.

Experiments:
Format in all cases: cell-based
[1] = target: protein kinases (human kinome) (Homo sapiens, UniProt P11802)
[2] = target: protein kinases (human kinome) (Homo sapiens, UniProt P53671); conditions: for logFC LIMK2: LIMK2 (P53671), down; for logFC of LIMK2: LIMK2 P53671
[3] = target: protein kinases (human kinome) (Homo sapiens, UniProt Q00534); conditions: for logFC CDK6: CDK6 (Q00534), direction down; for logFC of CDK6 (Q00534): down
[4] = test system: protein kinases (human kinome); conditions: for logFC of LIMK2: LIMK2 P53671-3; for logFC PDK3: PDK3 (Q15120-2)
[5] = target: protein kinases (human kinome) (Homo sapiens, UniProt P51451)
Sequence of protein kinases (human kinome) (Homo sapiens, UniProt P51451) (P51451 whole entry): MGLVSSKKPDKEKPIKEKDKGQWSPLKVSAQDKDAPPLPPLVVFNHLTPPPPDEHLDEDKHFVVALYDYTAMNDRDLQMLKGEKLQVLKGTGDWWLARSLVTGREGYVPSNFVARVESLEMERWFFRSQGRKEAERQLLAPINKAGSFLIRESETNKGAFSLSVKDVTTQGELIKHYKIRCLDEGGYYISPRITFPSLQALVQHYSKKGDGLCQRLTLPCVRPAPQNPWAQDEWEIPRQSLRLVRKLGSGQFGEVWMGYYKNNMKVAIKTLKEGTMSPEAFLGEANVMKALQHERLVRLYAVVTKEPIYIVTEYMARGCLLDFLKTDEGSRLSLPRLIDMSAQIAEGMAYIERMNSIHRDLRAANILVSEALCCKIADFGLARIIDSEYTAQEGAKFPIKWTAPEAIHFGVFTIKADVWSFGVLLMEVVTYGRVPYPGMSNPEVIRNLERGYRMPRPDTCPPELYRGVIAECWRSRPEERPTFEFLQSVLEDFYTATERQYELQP

Sequence of protein kinases (human kinome) (Homo sapiens, UniProt P53671) (P53671 whole entry): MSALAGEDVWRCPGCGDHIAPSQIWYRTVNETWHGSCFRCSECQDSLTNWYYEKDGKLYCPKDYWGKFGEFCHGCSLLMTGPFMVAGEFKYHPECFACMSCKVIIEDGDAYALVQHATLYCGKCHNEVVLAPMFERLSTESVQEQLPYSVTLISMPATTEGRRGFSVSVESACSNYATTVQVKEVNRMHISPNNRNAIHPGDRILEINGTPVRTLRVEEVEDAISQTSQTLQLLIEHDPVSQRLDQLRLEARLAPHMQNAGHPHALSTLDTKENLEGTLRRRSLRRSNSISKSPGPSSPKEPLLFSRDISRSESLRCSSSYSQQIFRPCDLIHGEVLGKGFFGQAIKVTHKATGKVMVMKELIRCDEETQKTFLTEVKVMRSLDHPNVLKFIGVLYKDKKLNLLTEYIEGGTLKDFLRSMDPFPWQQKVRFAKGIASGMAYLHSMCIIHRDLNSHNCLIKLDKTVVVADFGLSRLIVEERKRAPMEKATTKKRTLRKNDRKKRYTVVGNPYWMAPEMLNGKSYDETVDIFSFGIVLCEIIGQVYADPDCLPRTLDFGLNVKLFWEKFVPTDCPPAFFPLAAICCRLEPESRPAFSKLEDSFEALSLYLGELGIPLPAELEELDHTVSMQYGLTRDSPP
Sequence of protein kinases (human kinome) (Homo sapiens, UniProt P11802) (P11802 whole entry): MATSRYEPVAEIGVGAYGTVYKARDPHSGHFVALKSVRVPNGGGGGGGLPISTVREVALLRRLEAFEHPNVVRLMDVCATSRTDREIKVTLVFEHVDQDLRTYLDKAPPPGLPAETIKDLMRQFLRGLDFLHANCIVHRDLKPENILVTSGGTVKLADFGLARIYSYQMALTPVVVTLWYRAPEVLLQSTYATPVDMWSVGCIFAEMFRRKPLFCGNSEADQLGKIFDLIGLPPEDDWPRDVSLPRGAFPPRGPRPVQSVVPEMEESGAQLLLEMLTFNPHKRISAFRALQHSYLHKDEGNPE
Sequence of protein kinases (human kinome) (Homo sapiens, UniProt Q00534) (Q00534 whole entry): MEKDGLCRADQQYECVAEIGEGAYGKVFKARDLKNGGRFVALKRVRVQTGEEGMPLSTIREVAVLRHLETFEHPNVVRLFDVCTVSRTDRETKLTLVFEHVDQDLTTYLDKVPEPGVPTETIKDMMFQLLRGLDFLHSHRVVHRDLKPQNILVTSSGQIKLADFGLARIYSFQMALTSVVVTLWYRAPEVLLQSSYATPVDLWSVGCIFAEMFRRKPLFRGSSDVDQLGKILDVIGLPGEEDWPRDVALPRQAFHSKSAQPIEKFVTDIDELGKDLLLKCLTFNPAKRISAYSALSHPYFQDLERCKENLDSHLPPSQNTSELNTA

Structure (SMILES): CC(C)(C)c1nc(-c2cccc(NS(=O)(=O)c3c(F)cccc3F)c2F)c(-c2ccnc(NCCOCCNC(=O)CCOCCOCCNc3cccc4c3C(=O)N(C3CCC(=O)NC3=O)C4=O)n2)s1 (stereo not drawn) [DD.03.106]
- logFC CDK4 (P11802) ([1]; experiment wp047): −0.9277
- logFC CDK4 (P11802) ([1]; experiment wp137): −0.8885
- logFC CDK4 (P11802) ([1]; experiment wp147, 1 uM): −0.6961
- logFC CDK4 (P11802) ([1]; experiment wp147, 2 uM): −0.9835
- logFC CDK4 (P11802) ([1]; experiment wp147, 4 uM): −0.726
- logFC LIMK2 ([2]; experiment wp137): −1.026
- logFC of LIMK2 ([2]; experiment wp137): −1.026
- logFC CDK6 ([3]; experiment wp047): −1.086
- logFC CDK6 ([3]; experiment wp137): −1.083
- logFC CDK6 ([3]; experiment wp147, 1 uM): −0.8934
- logFC CDK6 ([3]; experiment wp147, 2 uM): −1.348
- logFC CDK6 ([3]; experiment wp147, 4 uM): −1.159
- logFC of CDK6 (Q00534) ([3]; Experiment wp047): −1.086
- logFC of CDK6 (Q00534) ([3]; Experiment wp137): −1.083
- logFC of CDK6 (Q00534) ([3]; Experiment wp147, 1 uM): −0.8934
- logFC of CDK6 (Q00534) ([3]; Experiment wp147, 2 uM): −1.348
- logFC of CDK6 (Q00534) ([3]; Experiment wp147, 4 uM): −1.159
- logFC ([4]; ACAD10 (Q6JQN1-5), experiment wp147, 4 uM): −0.7404
- logFC of CDK17 ([4]; Accession Q00537-2, experiment wp137): −0.8682
- logFC MAP3K20 (Q9NYL2-2) ([4]; Experiment wp147, 2 uM): −0.7388
- logFC MAP3K20 (Q9NYL2-2) ([4]; Experiment wp147, 4 uM): −0.4901
- logFC ([4]; GK P32189-3, experiment wp147, 4 uM): −0.4811
- logFC ([4]; LIMK2 (P53671-3), experiment wp047, direction down): −0.962
- logFC ([4]; LIMK2 (P53671-3), experiment wp147, 1 uM, direction down): −0.8736
- logFC ([4]; LIMK2 (P53671-3), experiment wp147, 2 uM, direction down): −1.082
- logFC ([4]; LIMK2 (P53671-3), experiment wp147, 4 uM, direction down): −0.9319
- logFC of LIMK2 ([4]; experiment wp047): −0.962
- logFC of LIMK2 ([4]; experiment wp147, 1 uM): −0.8736
- logFC of LIMK2 ([4]; experiment wp147, 2 uM): −1.082
- logFC of LIMK2 ([4]; experiment wp147, 4 uM): −0.9319
- logFC PDK3 ([4]; experiment wp137): −0.3571
- logFC PDK3 ([4]; experiment wp147, 4 uM): −0.6564
- logFC CDK16 (Q00536-2) ([4]; experiment wp137): −1.175
- logFC PDK3 (Q15120-2) ([4]; experiment wp137): −0.3571
- logFC of CDK17 (Q00537-2) ([4]; experiment wp137): −0.8682
- logFC CDK16 (Q00536-2) ([4]; experiment wp147, 1 uM): −0.5427
- logFC CDK16 (Q00536-2) ([4]; experiment wp147, 2 uM): −0.5385
- logFC MAP3K20 (Q9NYL2-2) ([4]; experiment wp147, 2 uM): −0.7388
- logFC CDK16 (Q00536-2) ([4]; experiment wp147, 4 uM): −0.4393
- logFC MAP3K20 (Q9NYL2-2) ([4]; experiment wp147, 4 uM): −0.4901

Structure (SMILES): CC(C)S(=O)(=O)c1ccccc1Nc1nc(Nc2ccc(N3CCN(CCOCCNC(=O)CNc4ccc5c(c4)C(=O)N(C4CCC(=O)NC4=O)C5=O)CC3)cc2)ncc1Cl (stereo not drawn) [SK.3.93]
- logFC CDK4 (P11802) ([1]; experiment wp016): −1.305
- logFC of BLK ([5]; BLK P51451, experiment wp016): −1.502
- logFC of BLK (P51451) ([5]; Experiment wp016, down): −1.502
- logFC LIMK2 ([2]; experiment wp016): −1.01
- logFC of LIMK2 ([2]; experiment wp016): −1.01
- logFC CDK6 ([3]; experiment wp016): −0.8585
- logFC of CDK6 (Q00534) ([3]; Experiment wp016): −0.8585
- logFC of SRC ([4]; Accession P12931-2, experiment wp016): −0.3456
- logFC ([4]; CDK9 (P50750-2) protein abundance, degrader vs DMSO, down): −0.6376
- logFC PRKAA1 (Q13131-2) ([4]; Experiment wp016, direction down): −0.4738
- logFC LCK ([4]; LCK, accession P06239-3, experiment wp016, direction of change down): −0.7798
- logFC RPS6KA1 ([4]; RPS6KA1 (Q15418-2), experiment wp016): −0.3413
- logFC ([4]; SRC (P12931-2) protein abundance, degrader vs DMSO, down): −0.3456
- logFC CDK9 (P50750-2) ([4]; experiment wp016): −0.6376
- logFC PRKAA1 (Q13131-2) ([4]; experiment wp016): −0.4738
- logFC RPS6KA1 (Q15418-2) ([4]; experiment wp016): −0.3413
- logFC LCK (P06239-3) ([4]; experiment wp016, direction of change down): −0.7798
